Results as given in patent publication US20180215769A1, “POLYCYCLIC-CARBAMOYLPYRIDONE COMPOUNDS AND THEIR PHARMACEUTICAL USE” (priority 2012, published 2018).
Like-named read-outs stand apart in the source and are kept apart here.

How the values were obtained:
Assay type in all cases: cell-based
HIV-IIIb = assay: Antiviral assay in MT4 cells; conditions: Human immunodeficiency virus 1, IIIB, MT4, 120 h
Experimental: (§3) For the antiviral assay utilizing MT4 cells, 0.4 μL of 189× test concentration of 3-fold serially diluted compound in DMSO was added to 40 μL of cell growth medium (RPMI 1640, 10% FBS, 1% penicilline/Streptomycine, 1% L-Glutamine, 1% HEPES) in each well of 384-well assay plates (10 concentrations) in quidruplicate.
(§4) 1 mL aliquots of 2×10^6 MT4 cells are pre-infected for 1 and 3 hours respectively at 37° C. with 25 μL (MT4) or of either cell growth medium (mock-infected) or a fresh 1:250 dilution of an HIV-IIIb concentrated ABI stock (0.004 m.o.i. for MT4 cells). Infected and uninfected cells are diluted in cell growth medium and 35 μL of 2000 (for MT4) cells is added to each well of the assay plates.
(§5) Assay plates were then incubated in a 37° C. incubator. After 5 days of incubation, 25 μL of 2× concentrated CellTiter-Glo™ Reagent (catalog # G7573, Promega Biosciences, Inc., Madison, Wis.) was added to each well of the assay plate. Cell lysis was carried out by incubating at room temperature for 2-3 minutes, and then chemiluminescence was read using the Envision reader (PerkinElmer).

[1] = Cytotoxicity (CC50) in MT4 cells, CellTiter-Glo; conditions: human
Experimental: as §3, §4, §5

human PXR (NR1I2) = target: T1, human PXR (NR1I2) (Homo sapiens, UniProt O75469); assay: Human PXR activation assay, luciferase reporter gene in DPX2 cells; conditions: human, relative to maximum fold induction by 10 or 20 uM rifampicin
T1 construct: expressed in transfected cells; host or cells: DPX2 (stably transformed tumor cell line)
T1 sequence (O75469 1-434): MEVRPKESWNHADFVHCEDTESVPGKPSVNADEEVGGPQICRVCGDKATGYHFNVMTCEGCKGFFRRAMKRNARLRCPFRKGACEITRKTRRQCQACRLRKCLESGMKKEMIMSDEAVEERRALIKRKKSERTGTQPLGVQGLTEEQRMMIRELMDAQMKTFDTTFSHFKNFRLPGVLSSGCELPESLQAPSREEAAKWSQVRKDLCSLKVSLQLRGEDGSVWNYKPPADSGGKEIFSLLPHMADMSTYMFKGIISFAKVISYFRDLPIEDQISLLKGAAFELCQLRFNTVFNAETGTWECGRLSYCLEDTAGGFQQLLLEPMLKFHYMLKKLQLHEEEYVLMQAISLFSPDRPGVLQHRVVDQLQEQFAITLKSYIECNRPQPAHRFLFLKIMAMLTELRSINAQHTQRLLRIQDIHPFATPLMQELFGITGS
Experimental: (§1) Luciferase Reporter Gene Assay.
(§2) A stably transformed tumor cell line (DPX2) plated on 96-well microtiter plates. DPX2 cells harbor the human PXR gene (NR1I2) and a luciferase reporter gene linked to two promoters identified in the human CYP3A4 gene, namely XREM and PXRE. The cells are treated with six concentrations of compounds (0.15˜50 µM) and incubated for 24 hr. The number of viable cells will be determined and the reporter gene activity is assessed. Positive control: Rifampicin at 6 concentrations (0.1˜20 µM). % Emax relative to the maximum fold induction by 10 or 20 µM RIF is calculated for test compounds according to the following equation which adjusts for the DMSO background: % Emax=(Fold induction−1)/(Maximum fold induction by RIF−1)×100%.

human PXR = target: T2, human PXR (Homo sapiens, UniProt O75469); assay: as above; conditions: 24 hr, relative to maximum fold induction by 10 or 20 uM rifampicin
T2 construct: expressed in transfected cells; host or cells: DPX2 (stably transformed tumor cell line)
T2 sequence (O75469 1-434): T1 sequence (O75469 1-434)
Experimental: as §1, §2

[2] = MT-4 cells infected with HIV-IIIb, 5 days incubation, read-out: EC50

SMILES	EC50 (HIV-IIIb; [2]) [µM]	CC50 at 5 days [1] [µM]	% Emax (human PXR) [%]	further results
O=C(NC1(c2ccc(F)cc2F)CC1)c1cn2c(c(O)c1=O)C(=O)N1C(C2)O[C@H]2CC[C@@H]1C2 (stereo partly drawn) [Compound 27]	0.004	–	–	–
O=C(NCc1ccc(F)cc1F)c1cn2c(c(O)c1=O)C(=O)N1[C@@H]3CC[C@@H](C3)O[C@H]1C2 [Compound 3]	0.0019	36.2	–	Emax at 24 hr, 15 µM (human PXR (NR1I2)): 5%
C[C@@H](NC(=O)c1cn2c(c(O)c1=O)C(=O)N1[C@H]3CC[C@H](C3)O[C@@H]1C2)c1ccc(F)cc1F [Compound 12]	0.0054	3.23	–	–
O=C(NC1(c2ccc(F)cc2F)CCCCC1)c1cn2c(c(O)c1=O)C(=O)N1C(C2)O[C@H]2CC[C@@H]1C2 (stereo partly drawn) [Compound 34]	–	–	–	EC50 (HIV-IIIb): 0.456 µM
O=C(NCc1ccc(F)c(F)c1)c1cn2c(c(O)c1=O)C(=O)N1[C@@H]3CC[C@@H](C3)O[C@H]1C2 [Compound 18]	–	–	4.4	–
O=C(NCc1ccc(F)cc1F)c1cn2c(c(O)c1=O)C(=O)N1C(C2)[N@]2CC[C@H]1C2 (stereo partly drawn) [Compound 6]	–	53.2	–	–
C[C@@H](NC(=O)c1cn2c(c(O)c1=O)C(=O)N1[C@@H]3CC[C@@H](C3)O[C@H]1C2)c1ccc(F)cc1F [Compound 11]	0.0044	–	–	–
O=C(NCc1ccc(F)cc1F)c1cn2c(c(O)c1=O)C(=O)N1C(C2)O[C@@H]2CCC[C@H]1C2 (stereo partly drawn) [Compound 8]	–	–	6.6	–
O=C(N[C@@H](c1ccc(F)cc1F)C(F)(F)F)c1cn2c(c(O)c1=O)C(=O)N1C(C2)O[C@H]2CC[C@@H]1C2 (stereo partly drawn) [Compound 36]	0.0035	13.5	–	–
C[C@H]1CO[C@@H]2Cn3cc(C(=O)NC4(c5ccc(F)cc5F)CC4)c(=O)c(O)c3C(=O)N12 [Compound 37, (3S,11aR)—N-(1-(2,4-difluorophenyl)cyclopropyl)-6-hydroxy-3-methyl-5,7-dioxo-2,3,5,7,11,11a-hexahydrooxazolo[3,2-a]pyrido[1,2-d]pyrazine-8-carboxamide]	–	–	1.5	–
O=C(NC1(c2ccc(F)cc2F)CC1)c1cn2c(c(O)c1=O)C(=O)N1C(C2)O[C@H]2CCC[C@@H]1C2 (stereo partly drawn) [Compound 28]	–	–	6.1	–
O=C(NCc1cc(F)cc(F)c1)c1cn2c(c(O)c1=O)C(=O)N1[C@@H]3CC[C@@H](C3)O[C@H]1C2 [Compound 24]	–	–	–	CC50 at 5 days ([1]; MT4 cells, MT-4 cells, 5 days incubation, read-out: CC50): 12.6 µM; EC50 (HIV-IIIb): 0.0034 µM
O=C(NCc1ccccc1F)c1cn2c(c(O)c1=O)C(=O)N1[C@@H]3CC[C@@H](C3)O[C@H]1C2 [Compound 23]	0.0018	11.5	–	–
O=C(NC1(c2ccc(F)cc2F)CC1)c1cn2c(c(O)c1=O)C(=O)N1C(C2)O[C@@H]2CCC[C@H]1C2 (stereo partly drawn) [Compound 29]	–	–	3.2	–
O=C(NCc1ccc(F)c(C(F)(F)F)c1)c1cn2c(c(O)c1=O)C(=O)N1[C@@H]3CC[C@@H](C3)O[C@H]1C2 [Compound 25]	0.0179	7.07	–	–
C[C@@H](NC(=O)c1cn2c(c(O)c1=O)C(=O)N1[C@H]3CC[C@H](C3)O[C@@H]1C2)c1ccc(F)cc1 [Compound 10]	–	–	–	Emax at 24 hr, 15 µM (human PXR (NR1I2)): 0.19%
O=C(NCc1ccc(Cl)c(F)c1)c1cn2c(c(O)c1=O)C(=O)N1[C@@H]3CC[C@@H](C3)O[C@H]1C2 [Compound 26]	0.008	11.5	–	–
O=C(NCc1ccc(F)cc1F)c1cn2c(c(O)c1=O)C(=O)N1[C@H]3CC[C@H](C3)O[C@@H]1C2 [Compound 2]	0.0019	2.96	–	Emax at 24 hr, 15 µM (human PXR (NR1I2)): 2.8%
O=C(NCc1ccc(F)cc1F)c1cn2c(c(O)c1=O)C(=O)N1C(C2)[N@@]2CCC[C@@H]1C2 (stereo partly drawn) [Compound 20]	–	–	2.4	–
C[C@@H](NC(=O)c1cn2c(c(O)c1=O)C(=O)N1[C@@H]3CC[C@@H](C3)O[C@H]1C2)c1ccc(F)cc1 [Compound 9]	–	–	–	Emax at 24 hr, 15 µM (human PXR (NR1I2)): 0.07%
O=C(NCc1ccc(F)cc1F)c1cn2c(c(O)c1=O)C(=O)N1C(C2)[N@]2CCC[C@H]1C2 (stereo partly drawn) [Compound 19]	–	–	1.5	–
O=C(NCc1ccc(F)cc1F)c1cn2c(c(O)c1=O)C(=O)N1C(C2)[N@@]2CC[C@@H]1C2 (stereo partly drawn) [Compound 4, (1 S,4R)—N-(2,4-difluorobenzyl)-7-hydroxy-6,8-dioxo-3,4,6,8,12,12a-hexahydro-2H-1,4-methanopyrido[1′,2′:4,5]pyrazino[1,2-a]pyrimidine-9-carboxamide]	–	–	3.2	–
O=C(NCc1ccc(F)cc1F)c1cn2c(c(O)c1=O)C(=O)N1C(C2)O[C@H]2CCC[C@@H]1C2 (stereo partly drawn) [Compound 7]	–	–	6.5	–
